In patent US7271188B2, “Imidazolidine derivatives” (Chugai Seikayu Kabushiki Kaisha, priority 2003, dated 2007):
pIC50: −log10 of the molar value. Like-named read-outs stand apart in the source and are kept apart here.

Legend:
human androgen receptor [1] = target: T1, human androgen receptor (Homo sapiens, UniProt P10275); assay: Test Example 1: agonist effect, androgen receptor reporter gene assay in 11A11B2 cells; type: cell-based; conditions: compound concentration showing transcription activity of 5% (0.1 nmol/L DHT = 100%, assay medium alone = 0%), 48 hours
T1 construct: expressed in transfected cells; host or cells: HeLa cells (clone 11A11B2), stably co-transfected with MMTV-Luc-Hyg reporter
T1 sequence (P10275 1-920): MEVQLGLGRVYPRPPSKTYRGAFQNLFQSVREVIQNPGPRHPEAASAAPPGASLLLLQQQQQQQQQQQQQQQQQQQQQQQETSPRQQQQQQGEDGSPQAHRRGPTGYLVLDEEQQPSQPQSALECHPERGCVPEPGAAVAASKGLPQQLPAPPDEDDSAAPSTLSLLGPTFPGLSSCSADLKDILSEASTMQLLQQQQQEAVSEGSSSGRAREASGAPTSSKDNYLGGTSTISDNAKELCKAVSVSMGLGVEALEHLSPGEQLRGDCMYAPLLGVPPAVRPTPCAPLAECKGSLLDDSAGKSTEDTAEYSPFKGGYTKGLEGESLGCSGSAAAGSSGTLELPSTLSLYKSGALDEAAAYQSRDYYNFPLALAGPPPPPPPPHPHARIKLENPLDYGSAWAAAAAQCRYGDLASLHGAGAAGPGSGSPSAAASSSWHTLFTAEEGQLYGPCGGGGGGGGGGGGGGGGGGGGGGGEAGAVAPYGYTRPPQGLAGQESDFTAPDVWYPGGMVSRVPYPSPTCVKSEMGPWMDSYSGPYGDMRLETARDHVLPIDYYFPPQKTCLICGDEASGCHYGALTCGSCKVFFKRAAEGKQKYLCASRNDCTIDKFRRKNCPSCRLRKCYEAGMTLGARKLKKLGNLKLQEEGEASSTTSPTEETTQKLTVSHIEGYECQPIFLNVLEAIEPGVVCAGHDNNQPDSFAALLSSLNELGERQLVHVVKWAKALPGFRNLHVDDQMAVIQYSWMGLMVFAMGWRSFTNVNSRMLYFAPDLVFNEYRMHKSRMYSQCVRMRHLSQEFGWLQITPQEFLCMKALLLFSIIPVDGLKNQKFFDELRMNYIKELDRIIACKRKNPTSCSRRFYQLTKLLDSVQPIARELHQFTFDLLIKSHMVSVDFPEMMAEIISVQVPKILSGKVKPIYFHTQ
Protocol: (§1) HeLa cells (purchased from Dai-Nippon Seiyaku K. K.) were cultured overnight in Dulbecco's Modified Eagle Medium containing no phenol red, but containing 3% charcoal-treated fetal bovine serum (hereafter referred to as DCC-FBS) (this medium is hereafter referred to as phenol-red-free DMEM). An MMTV-Luc-Hyg vector (reporter plasmid with […], containing an androgen response element and a hygromycin resistance gene: a vector obtained by substituting the chloramphenicol acetyl transferease gene of a GM-CAT vector (A.T.C.C No. 67282) purchased from the A.T.C.C. for the firefly luciferase gene, and inserting a hygromycin resistance gene), and pSG5-hAR-neo (human androgen receptor expression vector: a vector having an androgen receptor gene under the control of the SV40 promoter, and having a neomycin resistance gene inserted as a drug resistance gene) were transfected into the HeLa cells using an FuGENE™ 6 Transfection Reagent (obtained from Roche).
(§2) The clone cells thus obtained (11A11B2 cells) were maintained and propagated using DMEM containing 400 μg/mL neomycin, 200 μg/mL hygromycin and 10% FBS, and were propagated using phenol-red-free DMEM containing 10% DCC-FBS three to four days prior to the performance of an androgen receptor reporter gene assay.
The 11A11B2 cells were inoculated in a white clear-bottomed 96-well microplate (COSTAR) so that the cell concentration was 1.0×10^4/well, and were cultured overnight using phenol-red-free DMEM containing 3% DCC-FBS (hereafter referred to as the assay medium). Samples of the assay medium containing the compounds of the examples and compounds of the comparative examples were added so that the final concentrations of the compounds of the examples and compounds of the comparative examples were 1, 10, 100, 1,000 and 10,000 nmol/L (however, in the case of the compounds of Examples 1 and 2, the compounds were added so that the final concentrations were 1, 10, 100, 1,000, 10,000 and 100,000 nmol/L), and the cells were cultured for 48 hours, after which the transcription activity value was measured. The transcription activity was measured using a Bright-Glo™ Luciferase Assay System (Promega).
(§3) The transcription activity rates of the compounds of the examples were calculated from the transcription activity measured by the abovementioned method, with the transcription activity value obtained at 0.1 nmol/L DHT taken as 100%, and the transcription activity value in the case of the assay medium alone taken as 0%. The compound concentration showing a transcription activity of 5% (EC5 value) was calculated from a linear equation for two points on either side of 5%.

human androgen receptor [2] = target: T1, human androgen receptor; assay: Test Example 2: antagonist effect, androgen receptor reporter gene assay in 11A11B2 cells with 0.1 nmol/L DHT; type: cell-based
Protocol: as §1, §2
The 11A11B2 cells were inoculated in a white clear-bottomed 96-well microplate (COSTAR) so that the cell concentration was 1.0×10^4/well, and were cultured overnight using phenol-red-free DMEM containing 3% DCC-FBS (hereafter referred to as the assay medium). The assay medium containing DHT was added so that the final concentration of DHT was 0.1 nmol/L, and samples of the assay medium containing the compounds of the examples or compounds of the comparative examples were added so that the final concentrations of the compounds of the examples or compounds of the comparative examples were 1, 10, 100, 1,000 and 10,000 nmol/L, respectively. After culturing for 48 hours, the transcription activity values were measured. The transcription activity was measured using a Bright-Glo™ Luciferase Assay System (Promega).
as §3, with “0%.” for “0%. The compound concentration showing a transcription activity of 5% (EC5 value) was calculated from a linear equation for two points on either side of 5%.”
Accordingly, the value obtained by subtracting the transcription activity rate of Test Example 1 (Investigation of Agonist Activity) from the transcription activity rate of Test Example 2 (Investigation of Antagonist Activity) was used to calculate the compound concentration at which a transcription activity of 50% was shown (IC50 value). The IC50 value was calculated from a linear equation for two points on either side of 50%.

[3] = reports; cited from earlier work
androgen receptor = androgen receptor (Homo sapiens, UniProt P10275); conditions: at a concentration of 10 μmol/L; cited from earlier work
[4] = prostate cancer patients treated with flutamide; cited from earlier work
castrated rats = conditions: continuously administered to castrated rats for two weeks; cited from earlier work
[5] = concentration giving 50% transcription activity after subtracting the Test Example 1 agonist rate, 0.1 nmol/L DHT, 11A11B2 cells, 48 hours, read-out: IC50

| SMILES | EC5 (human androgen receptor [1]) | pIC50 (human androgen receptor [2]; [5]) | also measured |
| --- | --- | --- | --- |
| CN1C(=S)N(c2ccc(C#N)c(C(F)(F)F)c2)C(=O)C1(C)C [Comparative Example 1, 4-(5-oxo-2-thioxo-3,4,4-trimethyl-1-imidazolidinyl)-2-trifluoromethylbenzonitrile, reference compound] | 0.08 nM | – | pIC50 (human androgen receptor [2]): 9.00 |
| CC(=O)NCCN1C(=S)N(c2ccc(C#N)c(C(F)(F)F)c2)C(=O)C1(C)C [Comparative Example 2, 4-[3′-(2″-N-acetylaminoethyl)-4′,4′-dimethyl-5′-oxo-2′-thioxo-1′-imidazolidinyl]-2-trifluoromethylbenzonitrile, reference compound] | 3000 nM | 6.10 | – |
| CC(O)(CS(=O)(=O)c1ccc(F)cc1)C(=O)Nc1ccc(C#N)c(C(F)(F)F)c1 (stereo not drawn) [Comparative Example 3, bicalutamide] | – | – | side effects [3]: liver toxicity |
| CC(C)(O)C(=O)Nc1ccc([N+](=O)[O-])c(C(F)(F)F)c1 [Comparative Example 4, hydroxyflutamide] | 10 nM | – | androgen receptor transcription activity (androgen receptor): increase in androgen receptor transcription activity; concentration in the blood [4]: several |
| CC1(C)C(=O)N(c2ccc(C#N)c(C(F)(F)F)c2)C(=S)N1CCCS(N)(=O)=O [Example 1, 4-[3′-(3″-aminosulfonylpropyl)-4′,4′-dimethyl-5′-oxo-2′-thioxo-1′-imidazolidinyl]-2-trifluoromethylbenzonitrile] | 20000 nM | – | pIC50 (human androgen receptor [2]): 6.70 |
| CC1(C)C(=O)N(c2ccc(C#N)c(C(F)(F)F)c2)C(=S)N1CCCCS(N)(=O)=O [Example 2, 4-[3′-(4″-aminosulfonylbutyl)-4′,4′-dimethyl-5′-oxo-2′-thioxo-1′-imidazolidinyl]-2-trifluoromethylbenzonitrile] | >100000 nM | 6.22 | – |
| CC1(C)C(=O)N(c2ccc(C#N)c(C(F)(F)F)c2)C(=S)N1CCCCCCS(N)(=O)=O [Example 3, 4-[3′-(6″-aminosulfonylhexyl)-4′,4′-dimethyl-5′-oxo-2′-thioxo-1′-imidazolidinyl]-2-trifluoromethylbenzonitrile] | 3000 nM | 6.70 | – |
| CC1(C)C(=O)N(c2ccc(C#N)c(C(F)(F)F)c2)C(=S)N1CCCCCS(N)(=O)=O [Example 7, 4-[3′-(5″-aminosulfonylpentyl)-4′,4′-dimethyl-5′-oxo-2′-thioxo-1′-imidazolidinyl]-2-trifluoromethylbenzonitrile] | >10000 nM | 6.05 | – |
| CN(C)S(=O)(=O)CCCCN1C(=S)N(c2ccc(C#N)c(C(F)(F)F)c2)C(=O)C1(C)C [Example 8, 4-[3′-(4″-N,N-dimethylaminosulfonylbutyl)-4′,4′-dimethyl-5′-oxo-2′-thioxo-1′-imidazolidinyl]-2-trifluoromethylbenzonitrile] | 2000 nM | – | pIC50 (human androgen receptor [2]): 7.00 |
| CN(C)S(=O)(=O)CCCCCN1C(=S)N(c2ccc(C#N)c(C(F)(F)F)c2)C(=O)C1(C)C [Example 10, 4-[3′-(5″-N,N-dimethylaminosulfonylpentyl)-4′,4′-dimethyl-5′-oxo-2′-thioxo-1′-imidazolidinyl]-2-trifluoromethylbenzonitrile] | 2000 nM | 6.70 | – |
| CNS(=O)(=O)CCCCN1C(=S)N(c2ccc(C#N)c(C(F)(F)F)c2)C(=O)C1(C)C [Example 16, 4-[3′-(4″-N-methylaminosulfonylbutyl)-4′,4′-dimethyl-5′-oxo-2′-thioxo-1′-imidazolidinyl]-2-trifluoromethylbenzonitrile] | >10000 nM | 6.15 | – |
| CC1(C)C(=O)N(c2ccc(C#N)c(C(F)(F)F)c2)C(=S)N1CCS(N)(=O)=O [Example 18, 4-[3′-(2″-aminosulfonylethyl)-4′,4′-dimethyl-5′-oxo-2′-thioxo-1′-imidazolidinyl]-2-trifluoromethylbenzonitrile] | 7000 nM | – | pIC50 (human androgen receptor [2]): 6.22 |
| CC(=O)O[C@]1(C(C)=O)CC[C@H]2[C@@H]3C=C(Cl)C4=CC(=O)CC[C@]4(C)[C@H]3CC[C@@]21C [chlormadinone acetate] | – | – | weight of the prostate gland (castrated rats): increase in the weight of the prostate gland |
| CC(=O)O[C@]1(C(C)=O)CC[C@H]2[C@@H]3C=C(Cl)C4=CC(=O)[C@@H]5C[C@@H]5[C@]4(C)[C@H]3CC[C@@]21C [cyproterone acetate] | – | – | weight of the prostate gland (castrated rats): increase in the weight of the prostate gland |
| CC(C)C(=O)Nc1ccc([N+](=O)[O-])c(C(F)(F)F)c1 [flutamide] | – | – | side effects [3]: liver toxicity |
